Source: paper PMC6587462 (Journal of Clinical Pharmacology, 2018)
Where “and” joins values, the source holds several entries; their conditions need not be identical. Equal entries are not always repeated. Entries after “also recorded” stand apart in the source; their conditions may differ. Where two headings read alike, the source gives them in different places.

Columns and labels:
[1] = absorption, binding, metabolic, or excretory level; cited from earlier work
CYP3A4 = CYP3A4 (Homo sapiens, UniProt P08684); conditions: in vitro; cited from earlier work
[2] = Study 4 pilot bioequivalence study, PK after single oral NEPA; assay type: in vivo; conditions: human, plasma
[3] = parameters: species or system human; conditions: estimated from t1/2
[4] = Binding to plasma proteins; assay type: in vitro ADME; conditions: human, plasma
plasma proteins = experiment: Binding to plasma proteins; assay type: in vitro ADME
[5] = cited from earlier work
NK1 receptor [6] = conditions: PET; at 6 hours after single 300-mg oral netupitant; cited from earlier work
NK1 receptor [7] = target: NK1 receptor (Homo sapiens, UniProt P25103); conditions: NG108-15 cells; netupitant and palonosetron combined; cited from earlier work
[8] = Study 10 comparative bioavailability study; assay type: in vivo, human
[9] = Study 11 population PK/pharmacodynamic study in cancer patients; assay type: in vivo, human; conditions: population PK modeling in patients
[10] = Study 11 population PK, patients (117), NEPA FDC, cited from earlier work
[11] = netupitant; cited from earlier work
[12] = Octanol-water partition coefficient; assay type: physicochemical
[13] = Biopharmaceutics Classification System class and solubility in water; assay type: physicochemical
[14] = Oral NEPA PK in cancer patients, summary across studies; assay type: in vivo; conditions: human, plasma
clinical = conditions: human, in vivo, po
[15] = cited from earlier work; remark: listed apart in the source
[16] = cited from earlier work; for CL/F / Cmax / Tmax / Vz/F / t1/2: Study 8, healthy volunteers (22), NEPA FDC, mean (CV%)
[17] = Study 9 replicate crossover bioequivalence study; assay type: in vivo, human
[18] = target: T1, P‐glycoprotein (P‐gp) efflux transporter (Homo sapiens, UniProt P08183); experiment: In vitro interaction with P-gp; assay type: in vitro ADME
[19] = Apical-to-basolateral permeability in Caco-2 monolayer; assay type: in vitro ADME; conditions: human
[20] = Study 5 bioequivalence study, PK after single oral NEPA; assay type: in vivo, human
[21] = Study 12 PK/safety and DDI study in cancer patients; assay type: in vivo; conditions: human, plasma, oral
[22] = target: T1, P‐glycoprotein (P‐gp) efflux transporter; conditions: in vitro, cited from earlier work
NG108‐15 cells = conditions: netupitant and palonosetron combined; cited from earlier work
[23] = Absolute / oral bioavailability; assay type: in vivo; conditions: human, plasma, oral
[24] = Study 2 ADME study of [14C]-netupitant; assay type: in vivo, human; conditions: estimated at day 29 after administration
CYP2D6 = CYP2D6 (Homo sapiens, UniProt P10635); experiment: In vitro CYP2D6 inhibition; assay type: in vitro ADME
[25] = single-dose NEPA with 400-mg ketoconazole for 12 days vs alone
[26] = single-dose NEPA with daily 600-mg rifampicin for 17 days

T1 sequence (P08183 whole entry): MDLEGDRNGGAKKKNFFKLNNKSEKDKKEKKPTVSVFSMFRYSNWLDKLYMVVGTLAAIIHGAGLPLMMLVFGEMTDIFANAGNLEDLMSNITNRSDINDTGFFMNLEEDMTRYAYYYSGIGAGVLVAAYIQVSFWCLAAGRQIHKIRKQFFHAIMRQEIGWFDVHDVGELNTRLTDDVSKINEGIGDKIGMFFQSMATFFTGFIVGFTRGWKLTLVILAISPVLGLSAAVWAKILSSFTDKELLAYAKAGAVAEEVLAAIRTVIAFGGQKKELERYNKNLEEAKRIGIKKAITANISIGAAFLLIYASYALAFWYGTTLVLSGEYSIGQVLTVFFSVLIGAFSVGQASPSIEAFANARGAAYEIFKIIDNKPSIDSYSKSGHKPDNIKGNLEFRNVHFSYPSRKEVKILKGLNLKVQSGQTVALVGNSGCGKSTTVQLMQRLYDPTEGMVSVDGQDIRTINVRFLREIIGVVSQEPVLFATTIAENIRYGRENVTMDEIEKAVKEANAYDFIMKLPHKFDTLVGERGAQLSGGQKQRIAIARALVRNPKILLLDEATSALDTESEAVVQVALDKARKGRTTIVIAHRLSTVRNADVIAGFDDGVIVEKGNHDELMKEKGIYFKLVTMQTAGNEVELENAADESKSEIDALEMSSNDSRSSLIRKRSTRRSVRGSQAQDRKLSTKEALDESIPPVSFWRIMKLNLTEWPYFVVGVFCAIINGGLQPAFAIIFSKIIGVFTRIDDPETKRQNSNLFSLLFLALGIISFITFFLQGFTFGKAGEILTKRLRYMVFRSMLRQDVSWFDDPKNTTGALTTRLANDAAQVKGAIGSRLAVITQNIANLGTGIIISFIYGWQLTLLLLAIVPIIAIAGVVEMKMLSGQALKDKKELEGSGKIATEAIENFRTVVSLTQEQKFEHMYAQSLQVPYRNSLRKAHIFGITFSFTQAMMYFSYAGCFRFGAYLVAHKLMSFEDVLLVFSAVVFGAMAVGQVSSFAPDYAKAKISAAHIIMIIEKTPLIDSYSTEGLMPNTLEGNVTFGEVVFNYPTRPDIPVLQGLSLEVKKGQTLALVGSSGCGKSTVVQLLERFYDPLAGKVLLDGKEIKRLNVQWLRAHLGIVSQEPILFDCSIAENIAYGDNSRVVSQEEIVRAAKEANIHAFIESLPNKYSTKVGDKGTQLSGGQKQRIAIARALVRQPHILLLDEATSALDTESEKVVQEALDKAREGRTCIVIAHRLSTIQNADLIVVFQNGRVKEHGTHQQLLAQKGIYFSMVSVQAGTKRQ
Sequence of CYP2D6 (P10635 whole entry): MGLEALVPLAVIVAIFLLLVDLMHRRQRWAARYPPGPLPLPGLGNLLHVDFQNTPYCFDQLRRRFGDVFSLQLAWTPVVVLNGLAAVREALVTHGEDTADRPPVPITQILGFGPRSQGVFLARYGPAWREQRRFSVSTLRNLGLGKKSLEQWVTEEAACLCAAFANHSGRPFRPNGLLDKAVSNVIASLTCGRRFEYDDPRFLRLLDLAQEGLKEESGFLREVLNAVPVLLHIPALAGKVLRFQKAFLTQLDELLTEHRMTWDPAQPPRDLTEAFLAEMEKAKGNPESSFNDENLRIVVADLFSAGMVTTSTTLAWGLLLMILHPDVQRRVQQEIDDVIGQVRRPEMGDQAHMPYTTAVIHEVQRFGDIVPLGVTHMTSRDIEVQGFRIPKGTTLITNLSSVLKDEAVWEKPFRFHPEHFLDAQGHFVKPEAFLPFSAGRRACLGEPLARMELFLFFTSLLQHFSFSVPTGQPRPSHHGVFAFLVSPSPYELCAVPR
Sequence of CYP3A4 (P08684 whole entry): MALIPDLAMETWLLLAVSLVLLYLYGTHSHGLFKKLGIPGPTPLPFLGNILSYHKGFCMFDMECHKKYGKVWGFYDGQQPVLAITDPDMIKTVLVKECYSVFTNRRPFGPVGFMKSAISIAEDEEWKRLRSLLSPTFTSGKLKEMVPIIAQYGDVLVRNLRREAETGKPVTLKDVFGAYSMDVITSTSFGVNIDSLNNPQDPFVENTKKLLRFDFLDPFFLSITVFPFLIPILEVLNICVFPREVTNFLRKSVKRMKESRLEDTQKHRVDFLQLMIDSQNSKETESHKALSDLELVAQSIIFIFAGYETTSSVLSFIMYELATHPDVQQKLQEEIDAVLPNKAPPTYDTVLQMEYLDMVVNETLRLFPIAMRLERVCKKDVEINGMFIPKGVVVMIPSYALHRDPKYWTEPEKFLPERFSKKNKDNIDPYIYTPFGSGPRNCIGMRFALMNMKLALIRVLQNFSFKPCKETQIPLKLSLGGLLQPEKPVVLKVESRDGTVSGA
Sequence of NK1 receptor (Homo sapiens, UniProt P25103) (P25103 whole entry, species assumed): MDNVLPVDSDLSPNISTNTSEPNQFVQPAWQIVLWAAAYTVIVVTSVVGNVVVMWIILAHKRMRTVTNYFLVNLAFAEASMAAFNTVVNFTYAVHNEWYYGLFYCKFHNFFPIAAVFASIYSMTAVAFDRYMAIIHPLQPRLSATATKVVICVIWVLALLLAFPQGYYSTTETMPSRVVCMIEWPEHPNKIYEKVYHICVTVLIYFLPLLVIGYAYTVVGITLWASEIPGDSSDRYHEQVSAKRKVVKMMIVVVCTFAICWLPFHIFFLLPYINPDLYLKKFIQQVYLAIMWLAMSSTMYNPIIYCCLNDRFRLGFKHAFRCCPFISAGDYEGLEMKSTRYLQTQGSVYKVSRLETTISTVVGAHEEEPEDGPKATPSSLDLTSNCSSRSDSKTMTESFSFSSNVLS

Cc1ccccc1-c1cc(N2CCN(C)CC2)ncc1N(C)C(=O)C(C)(C)c1cc(C(F)(F)F)cc(C(F)(F)F)c1 [netupitant]
PK interaction between netupitant and palonosetron [1]: no relevant PK interactions | CYP3A4 inhibition (CYP3A4): moderate inhibitor | Tmax [2]: 5.38 h | Vd/F [2]: 2780 L | half-life [2]: 89.2 h | fraction from previous NEPA administration eliminated at next dose ([3]; chemotherapy every 2 weeks): approximately 95% | fraction from previous NEPA administration eliminated at next dose ([3]; chemotherapy every 3 weeks): approximately 99% | fraction unbound [4]: < 0.01 | binding to plasma proteins (plasma proteins): > 99% | fold increase of AUCinf [5, 25]: 2.4 fold | fold increase of Cmax [5, 25]: 1.2 fold | fold decrease of AUCinf [5, 26]: 4.9 fold | fold decrease of Cmax [5, 26]: 2.2 fold | NK1 receptor occupancy in the striatum (NK1 receptor [6]): 92.5% | combined effect on triggering NK1 receptor internalization (NK1 receptor [7]): additive effects | CL/F ([8]; Study 10, healthy volunteers (24), NEPA FDC standard dissolution, mean (CV%)): 25.7 (40.9) L/h | Cmax ([8]; human, plasma, oral): 374 ng/mL | Tmax ([8]; human, plasma, oral): 5.15 h | Vd/F ([8]; human, plasma, oral): 3160 L | half-life ([8]; human, plasma, oral): 89.9 h | absorption lag time [9]: 0.77 h | absorption rate constant [9]: 0.956 h⁻¹ | Cmax ([10]; mean (CV%)): 567.3 (38.2) ng/mL | Tmax ([10]; mean (CV%)): 4.02 (59.1) h | t1/2 ([10]; mean (CV%)): 92.8 (32.8) h | CL/F ([10]; value (%RSE)): 20.5 (%RSE 16.3) L/h | solubility in water [11]: very slightly soluble | logP [12]: 5.1 | Biopharmaceutics Classification System class [13]: 2 | CL/F (Healthy volunteers, Min-Max of study means, single oral NEPA): 16.3 to 26.3 L/h | time after dosing until which plasma concentrations were quantifiable (after NEPA, M2 below LLOQ thereafter, others up to last observation time): 10 days | plasma concentration as fraction of mean Cmax (at 3 hours after oral NEPA): approximately 80% | peak plasma concentration of unbound netupitant (human, in vivo): 0.65 µM | Cmax [14]: 477 to 567 ng/mL | Tmax [14]: 4.02 to 4.56 h | Vd/F [14]: 1660 to 2260 L | Cmax (clinical): 374 to 650 ng/mL | Tmax (clinical): 4.36 to 5.66 h | Vd/F (clinical): 1980 to 3310 L | half-life (clinical): 75.3 to 101 h | mass balance recovery of total radioactivity in urine ([15]; [14C]-netupitant and its metabolites M1, M2, and M3): 4.75% | administered dose excreted through the feces (hepatic/biliary route) ([15]; netupitant and its metabolites): 87% and 86.5% | CL/F ([16]; fasted): 20.5 (52.7) L/h | Cmax ([16]; fasted): 596.4 (39.1) ng/mL | Tmax ([16]; fasted): 5.14 (17.3) h | Vz/F ([16]; fasted): 2851 (57.3) L | t1/2 ([16]; fasted): 101.2 (52.2) h | CL/F ([16]; fed): 16.3 (23.1) L/h | Cmax ([16]; fed): 649.8 (21.8) ng/mL | Tmax ([16]; fed): 5.66 (17.1) h | Vz/F ([16]; fed): 1984 (40.1) L | t1/2 ([16]; fed): 86.3 (46.2) h | AUCinf and Cmax under fed (high-fat breakfast) vs fasting conditions ([16]; open, randomized, 2-way crossover study in healthy volunteers): similar | CL/F ([17]; Study 9, healthy volunteers (82), NEPA FDC commercial product, mean (CV%)): 26.2 (51.2) L/h | Cmax ([17]; human, plasma, oral): 454 ng/mL | Tmax ([17]; human, plasma, oral): 5.01 h | Vd/F ([17]; human, plasma, oral): 2740 L | half-life ([17]; human, plasma, oral): 76.6 h | Ki [18]: 3 µM | fold by which unbound peak plasma concentration is lower than P-gp Ki ([18]; human, not told, oral): approximately 5 fold | Papp [19]: > 20 ×10⁻⁶ cm/s | CL/F ([20]; Study 5, healthy volunteers (47), single oral NEPA FDC, mean (CV%)): 26.3 (47.4) L/h | Cmax ([20]; human, plasma, po): 434 ng/mL | Tmax ([20]; human, plasma, po): 5.07 h | Vd/F ([20]; human, plasma, po): 3310 L | half-life ([20]; human, plasma, po): 95.6 h | Vd/F [21]: 1860 to 2260 L | substrate of P-gp (MDR1/P-gp) efflux transporter [22]: not a P‐gp substrate; also recorded: not substrates | inhibitor of P-gp efflux transporter ([22]; parent drugs): P‐gp inhibitor | combined effect on inhibition of substance P-mediated response (NG108‐15 cells): synergistic effects | bioavailability [23]: 63 to 87% | fraction of netupitant eliminated [24]: approximately 90% | inhibition or induction of CYP2D6 (CYP2D6): not an inhibitor or inducer
